Experimental data from US20260200890A1, “ADAR1 INHIBITORS AND METHODS OF USING THE SAME” (AVAMMUNE THERAPEUTICS INC., priority 2022, published 2026).
pEC50, pKd: −log10 of the molar value.

Experiments:
ADAR1 = target: T1, ADAR1 (Homo sapiens, UniProt P55265); assay: ADAR1 Inhibition Assay (IFN fold-induction, Quanti-Luc luminescence, p110 KO A549 dual cells); assay type: cell-based; conditions: IFN fold-induction vs DMSO, 24 and 48 h
T1 construct: endogenous in cells; host or cells: p110 KO A549 dual cells
T1 sequence (P55265 1-1226): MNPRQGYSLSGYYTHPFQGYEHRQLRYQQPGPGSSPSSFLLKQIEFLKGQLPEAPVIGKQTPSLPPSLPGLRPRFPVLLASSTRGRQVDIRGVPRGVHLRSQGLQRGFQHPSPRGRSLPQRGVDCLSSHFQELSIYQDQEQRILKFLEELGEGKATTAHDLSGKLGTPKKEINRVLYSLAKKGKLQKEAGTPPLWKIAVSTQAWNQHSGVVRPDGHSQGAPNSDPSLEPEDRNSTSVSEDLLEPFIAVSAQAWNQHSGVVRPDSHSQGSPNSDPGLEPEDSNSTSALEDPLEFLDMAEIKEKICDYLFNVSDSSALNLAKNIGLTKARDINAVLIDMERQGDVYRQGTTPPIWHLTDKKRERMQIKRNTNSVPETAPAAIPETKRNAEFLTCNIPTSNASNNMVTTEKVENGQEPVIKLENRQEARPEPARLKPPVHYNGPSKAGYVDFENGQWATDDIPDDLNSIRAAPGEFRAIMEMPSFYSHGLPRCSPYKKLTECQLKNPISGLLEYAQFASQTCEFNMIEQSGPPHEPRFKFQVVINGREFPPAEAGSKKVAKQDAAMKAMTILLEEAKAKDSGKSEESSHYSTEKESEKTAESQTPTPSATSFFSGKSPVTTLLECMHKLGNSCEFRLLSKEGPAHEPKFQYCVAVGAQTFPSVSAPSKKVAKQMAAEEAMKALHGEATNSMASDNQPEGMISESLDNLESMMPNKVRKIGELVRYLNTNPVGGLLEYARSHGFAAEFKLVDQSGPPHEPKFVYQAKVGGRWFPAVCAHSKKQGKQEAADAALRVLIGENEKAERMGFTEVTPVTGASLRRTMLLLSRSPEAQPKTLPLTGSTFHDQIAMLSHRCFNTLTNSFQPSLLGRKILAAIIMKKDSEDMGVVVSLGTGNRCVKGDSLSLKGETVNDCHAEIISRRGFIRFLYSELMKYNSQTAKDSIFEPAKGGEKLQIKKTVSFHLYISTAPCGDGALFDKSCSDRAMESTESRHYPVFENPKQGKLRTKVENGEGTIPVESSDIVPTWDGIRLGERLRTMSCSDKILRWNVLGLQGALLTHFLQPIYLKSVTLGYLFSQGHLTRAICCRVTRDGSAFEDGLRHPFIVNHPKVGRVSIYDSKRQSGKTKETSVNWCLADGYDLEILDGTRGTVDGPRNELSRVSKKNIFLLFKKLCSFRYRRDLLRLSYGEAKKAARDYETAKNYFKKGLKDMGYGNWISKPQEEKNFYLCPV
In short: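 EC50 derived from IFN fold-induction, calculated as sample RLU over average DMSO RLU. Luminescence measured by Quanti-Luc on samples taken after 24 and 48 h of compound exposure (1% DMSO final, 37 °C, 5% CO2). Cells were p110 KO A549 dual, seeded at 20,000 per well in supplemented DMEM.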

Zα domain of ADAR1 p150 = target: T2, Zα domain of ADAR1 p150 (Homo sapiens, UniProt P55265); assay: SPR binding assay; conditions: 6× his tag Zα domain immobilized on CM5 chip, analyte 0-25 μM
T2 construct: 10 μg/ml of Zα domain of ADAR1 was immobilized on CM5 chip using anti-HIS antibody; made in house
T2 sequence (P55265 133-199 limits assumed): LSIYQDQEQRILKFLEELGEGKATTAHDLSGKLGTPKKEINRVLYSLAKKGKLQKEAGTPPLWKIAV
Method: 6× his tag Za domain of ADAR1 p150 was purified using bacterial purification system. Protein was isolated from supernatant of cell lysate using Ni-NTA resin. For binding assay using SPR, 10 μg/ml of Zα domain of ADAR1 was immobilized on CM5 chip using anti-HIS antibody. Binding was quantified using the following condition below: • Analyte: 25, 12.5, 6.25, 3.125, 1.56, 0.78, 0 μM • Contact time—60 seconds, • Dissociation time—320 seconds • Flow rate—30 μL/minute Running buffer-PBSP+5% DMSO • After curve fitting, Kd values for synthesized compounds was quantified using the instrument software.

Compound | pEC50 (ADAR1) | pKd (Zα domain of ADAR1 p150)
CCOC(=O)c1cc(-c2ccccc2)sc1NC(=O)Cn1cc(-c2cccc(P(=O)(OCC)OCC)c2)nn1 [Compound 385] | < 4.00 | ≥ 6.00
CCOC(=O)c1cc(-c2ccccc2)sc1NC(=O)COC(=O)c1ccc2c(c1)OCCO2 [Compound 163] | < 4.00 | ≥ 6.00
CCOC(=O)c1cc(-c2ccccc2)sc1NC(=O)[C@@H]1CCN(C(=O)c2cccc(P(=O)(OCC)OCC)c2)C1 [Compound 415] | < 4.00 | ≥ 6.00
CCOC(=O)c1cc(-c2ccccc2)sc1NC(=O)CNC(=O)Cc1cccc(NS(C)(=O)=O)c1 [Compound 310] | ≥ 4.60 | ≥ 6.00
CCOC(=O)c1cc(-c2ccccc2)sc1C1=CCN(C(=O)c2cccc(NS(C)(=O)=O)c2)CC1 [Compound 294] | < 4.00 | ≥ 6.00
CCOC(=O)c1cc(-c2ccccc2)sc1NC(=O)COC(=O)c1cccc(NS(=O)(=O)C2CCCCC2)c1 [Compound 132] | < 4.00 | ≥ 6.00
CCOC(=O)c1cc(-c2ccccc2)sc1NC(=O)COC(=O)C1CN(S(C)(=O)=O)CCO1 (stereo not shown) [Compound 172] | < 4.00 | ≥ 6.00
CCOC(=O)c1cc(-c2ccccc2)sc1-c1cccc(NC(=O)c2cccc(NS(C)(=O)=O)c2)c1 [Compound 293] | < 4.00 | < 4.60
CCOC(=O)c1cc(-c2ccccc2)sc1NC(=O)CCS(=O)(=O)c1cccc(NS(C)(=O)=O)c1 [Compound 321] | < 4.00 | ≥ 6.00
CCOC(=O)c1cc(-c2ccccc2)sc1NC(=O)C1CCCN1C(=O)c1cccc(S(N)(=O)=O)c1 (stereo not shown) [Compound 72] | ≥ 4.60 | 5.00 to 6.00
CCOC(=O)c1cc(-c2ccc(P(=O)(OCC)OCC)cc2)sc1NC(=O)COC(=O)c1cccc(NS(C)(=O)=O)c1 [Compound 389] | < 4.00 | < 4.60
CCOC(=O)c1cc(-c2ccccc2)sc1NC(=O)CNC(=O)c1cccc(NS(C)(=O)=O)c1 [Compound 13] | < 4.00 | ≥ 6.00
CCOC(=O)c1cc(-c2ccccc2)sc1NC(=O)COC(=O)c1cccc(C(F)(F)F)c1 [Compound 70] | < 4.00 | < 4.60
CCOC(=O)c1nc(-c2ccccc2)sc1NC(=O)COC(=O)c1cccc(NS(C)(=O)=O)c1 [Compound 144] | < 4.00 | ≥ 6.00
CCOC(=O)c1cc(-c2ccccc2)sc1NC(=O)COC(=O)c1cccc(P(=O)(OCC)OCC)c1 [Compound 343] | < 4.00 | ≥ 6.00
CCOC(=O)c1cc(-c2ccccc2)sc1NC(=O)CNC(=O)c1cccc(P(=O)(OCC)OCC)c1 [Compound 344] | < 4.00 | < 4.60
CCOC(=O)c1cc(-c2ccccc2)sc1NC(=O)COC(=O)c1cccc(NS(C)(=O)=O)c1 [Compound 66, Ethyl 2-(2-((3-(methylsulfonamido)benzoyl)oxy)acetamido)-5-phenylthiophene-3-carboxylate] | ≥ 4.60 | ≥ 6.00
CCOC(=O)c1cc(-c2ccccc2)sc1NC(=O)[C@H]1CCN(C(=O)c2cccc(P(=O)(OCC)OCC)c2)C1 [Compound 406] | 4.00 to 4.30 | ≥ 6.00
CCOC(=O)c1sc(NC(=O)COC(=O)c2cccc(P(=O)(OCC)OCC)c2)nc1-c1ccccc1 [Compound 356] | < 4.00 | < 4.60
CCOC(=O)c1cc(-c2ccccc2)sc1NC(=O)COC(=O)c1cccc(NS(=O)(=O)C2CC2)c1 [Compound 161] | ≥ 4.60 | < 4.60
CS(=O)(=O)Nc1cccc(C(=O)OCC(=O)Nc2nc3ccccc3o2)c1 [Compound 270] | < 4.00 | ≥ 6.00

The next lines start with the values.

pEC50 (ADAR1) | pKd (Zα domain of ADAR1 p150) | Compound
< 4.00 | 5.00 to 6.00 | CCOC(=O)c1sc(-c2ccccc2)cc1NC(=O)COC(=O)c1cccc(P(=O)(O)O)c1 [Compound 400]
< 4.00 | ≥ 6.00 | CCOC(=O)c1cc(-c2ccccc2)sc1NC(=O)[C@H]1CCN(C(=O)c2cccc(S(N)(=O)=O)c2)C1 [Compound 426]
< 4.00 | ≥ 6.00 | CCOC(=O)c1cc(-c2ccccc2)sc1NC(=O)CNC(=O)CCc1cccc(NS(C)(=O)=O)c1 [Compound 365]
< 4.00 | ≥ 6.00 | CCOC(=O)c1cc(-c2ccccc2)sc1NC(=O)COC(=O)c1cccc(S(=O)(=O)NC(C)=O)c1 [Compound 399]
< 4.00 | ≥ 6.00 | CCNC(=O)c1cc(-c2ccccc2)sc1NC(=O)CNC(=O)Cc1cccc(NS(C)(=O)=O)c1 [Compound 376]
< 4.00 | ≥ 6.00 | CCOC(=O)c1cc(-c2ccccc2)sc1NC(=O)CNC(=O)Cc1cccc(OS(N)(=O)=O)c1 [Compound 351]
< 4.00 | ≥ 6.00 | CCOC(=O)c1cc(-c2ccccc2)sc1NC(=O)CNC(=O)c1cccc(Br)c1 [Compound 358]
< 4.00 | ≥ 6.00 | CCOC(=O)c1cc(-c2ccccc2)sc1NC(=O)Cn1cc(-c2cccc(S(N)(=O)=O)c2)nn1 [Compound 427]
< 4.00 | ≥ 6.00 | CCOC(=O)c1cc(-c2ccccc2)sc1NC(=O)CNC(=O)Cc1cccc(P(=O)(O)O)c1 [Compound 350]
< 4.00 | ≥ 6.00 | CCOC(=O)c1cc(-c2ccccc2)sc1NC(=O)C1CCCCN1C(=O)Cc1cccc(NS(C)(=O)=O)c1 (stereo not shown) [Compound 380]
< 4.00 | < 4.60 | CCOC(=O)c1cc(-c2ccccc2)sc1NC(=O)Cn1cc(-c2cccc(P(=O)(O)O)c2)nn1 [Compound 386]
< 4.00 | ≥ 6.00 | CCOC(=O)c1cc(-c2ccccc2)sc1NC(=O)COC(=O)c1cccc(P(=O)(O)O)c1 [Compound 325]
< 4.00 | < 5.00 | CCOC(=O)c1nc(-c2ccccc2)oc1NC(=O)COC(=O)c1cccc(P(=O)(O)O)c1 [Compound 418]
< 4.00 | ≥ 6.00 | CCOC(=O)c1cc(-c2ccc(P(=O)(O)O)cc2)sc1NC(=O)COC(=O)c1cccc(NS(C)(=O)=O)c1 [Compound 388]
< 4.00 | ≥ 6.00 | CCOC(=O)c1cc(-c2ccccc2)sc1NC(=O)[C@H]1CCN(Cc2cccc(P(=O)(O)O)c2)C1 [Compound 397]
< 4.00 | < 4.60 | CCOC(=O)c1cc(-c2ccccc2)sc1NC(=O)[C@@H]1CCN(Cc2cccc(P(=O)(O)O)c2)C1 [Compound 398]
< 4.00 | < 4.60 | CCOC(=O)c1cc(-c2ccccc2)[nH]c1NC(=O)C1CCN(C(=O)c2cccc(NS(C)(=O)=O)c2)C1 (stereo not shown) [Compound 412]
< 4.00 | < 4.60 | CCOC(=O)c1cc(-c2ccccc2)ncc1NC(=O)COC(=O)c1cccc(NS(C)(=O)=O)c1 [Compound 372]
4.00 to 4.30 | ≥ 6.00 | CCOC(=O)c1cc(-c2ccccc2)sc1NC(=O)CNC(=O)Cc1ccc(P(=O)(O)O)cc1 [Compound 405]
< 4.00 | ≥ 6.00 | CCOC(=O)c1cc(-c2ccccc2)sc1NC(=O)CNC(=O)c1cccc(P(=O)(O)O)c1 [Compound 367]
< 4.00 | < 4.60 | CCOC(=O)c1cc(-c2ccccc2)sc1NC(=O)CC(=O)NCc1cccc(NS(C)(=O)=O)c1 [Compound 369]
< 4.00 | ≥ 6.00 | CCOC(=O)c1cc(-c2ccccc2)sc1NC(=O)CNC(=O)Cc1cccc(C(F)(F)F)c1 [Compound 326]
< 4.00 | 5.00 to 6.00 | CCNC(=O)c1cc(-c2ccccc2)sc1NC(=O)CN(C)C(=O)Cc1cccc(NS(C)(=O)=O)c1 [Compound 384]
